ChEMBL document CHEMBL4390706, “Chemical constituents from the seeds of Cassia obtusefolia and their in vitro α-glucosidase inhibitory and antioxidant activities” (Bioorg Med Chem Lett, 2019)
Converted amounts (≈) assume the structure as drawn.

test: Antioxidant activity assessed as DPPH radical scavenging activity incubated for 30 mins under dark condition; type: functional

In order of rising IC50:
1. COc1cc(O)c2c(O)c3c(=O)cc(C)oc3cc2c1 [RUBROFUSARIN]  3.03 µg/mL (≈ 11.1 µM)
2. O=C1O[C@H]([C@@H](O)CO)C(O)=C1O [ASCORBIC ACID]  6.48 µg/mL (≈ 36.8 µM)
3. COc1cc(O)c2c(O)c3c(=O)oc(C)cc3cc2c1  78.4 µg/mL (≈ 288 µM)

test: Inhibition of baker's yeast alpha-glucosidase using PNPG as substrate preincubated for 15 mins followed by substrate addition and measured after 15 mins; design: species or system Saccharomyces cerevisiae

In order of rising IC50:
1. COc1cc(O)c2c(c1)C(=O)c1cc(C)cc(O)c1C2=O [PHYSCION]  22.57 µg/mL (≈ 79.4 µM)
2. Cc1cc(O)c2c(c1)C(=O)c1cccc(O)c1C2=O [CHRYSOPHANOL]  50.6 µg/mL (≈ 199 µM)
3. Cc1cc(O)c2c(c1)C(C1c3cccc(O)c3C(=O)c3c(O)cc(C)cc31)c1cccc(O)c1C2=O (stereo not given)  60.09 µg/mL (≈ 126 µM)
4. COc1cc(O)c2c(O)c3c(=O)oc(C)cc3cc2c1  80.01 µg/mL (≈ 294 µM)
5. COc1c(O)cc2c(c1O)C(=O)c1c(cc(C)c(O)c1OC)C2=O [AURANTIOOBTUSIN]  107.81 µg/mL (≈ 326 µM)
6. COc1cc(O)cc2c1C(=O)c1c(O)cc(C)cc1C2=O [QUESTIN]  117.94 µg/mL (≈ 415 µM)
7. COc1c(C)cc2c(c1O)C(=O)c1c(cc(O)c(OC)c1O)C2=O  120.65 µg/mL (≈ 365 µM)
8. COc1c(O)c(C)cc2c1C(=O)c1c(O)cccc1C2=O [OBTUSIFOLIN]  144.64 µg/mL (≈ 509 µM)
9. COc1cc(O)c2c(O)c3c(=O)cc(C)oc3cc2c1 [RUBROFUSARIN]  162.04 µg/mL (≈ 595 µM)
10. COc1cc2c(c(O)c1OC)C(=O)c1c(cc(C)c(OC)c1OC)C2=O  164.81 µg/mL (≈ 460 µM)
11. COc1ccc2c(c1O)C(=O)c1c(cc(C)c(O)c1OC)C2=O  183.91 µg/mL (≈ 585 µM)

C[C@H]1O[C@H](O[C@H]2[C@H](O)[C@@H](O)[C@@H](O[C@H]3[C@H](O)[C@@H](O)C(O)O[C@@H]3CO)O[C@@H]2CO)[C@H](O)[C@@H](O)[C@@H]1N[C@H]1C=C(CO)[C@@H](O)[C@H](O)[C@H]1O (stereo not given in full) [ACARBOSE] gave an IC50 of under 5.05 µg/mL.
